Assay [1] concerns Variola virus. As to the kind of experiment: microbe, parasite or virus in culture. To be noted: SOM77-ali, BSC-40.
Assay [2] concerns Variola virus. As to the kind of experiment: Antiviral activity against Variola virus SUD47-juba infected in african green monkey BSC-40 cells at 0.05 to 5 uM assessed as reduction in virus-induced cytopathic effect. The assay is classed as functional, organism-based. On the technique in general: Protection from cytopathic effect is a common read-out in antiviral testing.
For a further assay, the system named is Monkeypox virus. As to the kind of experiment: Antiviral activity against Monkeypox virus V77-I-823 infected in african green monkey BSC-40 cells assessed as reduction in virus-induced cytopathic effect at 0.005 uM. The assay is classed as functional, organism-based.

SMILES strings stand for the structures. Active and inactive are the calls of the source. No cut-off for these calls is given here.

Usually EC50 stands for the concentration that produces a half-maximal response.

For `O=C(NN1C(=O)[C@@H]2[C@@H]3C=C[C@@H]([C@H]4C[C@@H]34)[C@@H]2C1=O)c1ccc(C(F)(F)F)cc1` [TECOVIRIMAT], it took 28 nM to reach a half-maximal effect in the assay on Variola virus [1] (EC50). Also, the outcome with Variola virus [2] was Active. For the same compound, the outcome in the assay with Monkeypox virus was inactive.

The values are drawn from ChEMBL document CHEMBL1629642, “In vitro efficacy of ST246 against smallpox and monkeypox” (Antimicrob Agents Chemother, 2009).
